Results on five compounds are retold here after BindingDB's records for doi:10.1021/jm800936s (University of Oxford, 2008).

The target in the experiment is T1, Lysine-specific demethylase 4E (Homo sapiens, UniProt B2RXH2).
T1 sequence (B2RXH2 whole entry): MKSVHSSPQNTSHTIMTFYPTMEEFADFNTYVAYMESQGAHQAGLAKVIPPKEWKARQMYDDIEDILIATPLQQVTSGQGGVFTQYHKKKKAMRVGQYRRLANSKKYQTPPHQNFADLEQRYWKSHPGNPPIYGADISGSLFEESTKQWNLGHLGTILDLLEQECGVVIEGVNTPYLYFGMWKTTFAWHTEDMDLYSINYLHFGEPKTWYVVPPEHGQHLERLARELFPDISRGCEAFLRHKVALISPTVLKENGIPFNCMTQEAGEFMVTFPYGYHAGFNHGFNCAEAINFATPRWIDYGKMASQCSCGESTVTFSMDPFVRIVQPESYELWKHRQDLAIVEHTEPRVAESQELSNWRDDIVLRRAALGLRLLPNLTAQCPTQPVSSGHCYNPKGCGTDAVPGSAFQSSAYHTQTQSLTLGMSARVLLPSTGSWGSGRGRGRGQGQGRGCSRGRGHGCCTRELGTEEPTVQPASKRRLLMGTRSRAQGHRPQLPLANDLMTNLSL
Kind of experiment: FDH Coupled Inhibition Assay. Particulars: pH 7.5; 37 °C. As to the method: A coupled-assay for JMJD2E activity employing formaldehyde dehydrogenase (FDH) from Pseudomonas putida was developed. Formaldehyde release by demethylation of the histone peptide substrate was monitored by its oxidation to give formate as catalyzed by FDH, which is carried out concomitantly with the reduction of NAD+. The production of NADH was monitored by fluorescence spectroscopy.
As usually defined, the IC50 is the concentration that gives 50% inhibition. A lower IC50 goes with greater potency. For `CCCC(=O)O` [butanoic acid], the IC50 is above 10 mM. The compound `COC(=O)c1ccnc(-c2cc(C(=O)O)ccn2)c1` [2-[4-(methoxycarbonyl)pyridin-2-yl]pyridine-4-carboxylic acid] returned an IC50 of 0.0066 mM.

On to `O=C(O)c1cncc(C(=O)O)c1` [pyridine-3,5-dicarboxylic acid], for which the IC50 is above 10 mM. The value for `O=C(O)c1ccncc1C(=O)O` [pyridine-3,4-dicarboxylic acid] was above 10 mM; that for `O=C(O)c1cccnc1C(=O)O` [pyridine-2,3-dicarboxylic acid] was above 5 mM.
